Columns and labels:
JNK3 = biological target: T1, JNK3 (Homo sapiens, UniProt P53779); test: JNK3 Assay (HTRF, JNK-3/GST-ATF2); type: biochemical; settings: JNK3 kinase, GST-ATF2 substrate, 15 μM ATP solution, 20 min at 37° C.
T1 construct: Biotech, Vitry
Description: The assay was performed on a Cybio pipetting system in the 384-well plate format. The final assay volume was 30 μl, comprising 10 μl of a probe (an extract or a pure substance-to-be-tested), 10 μl of an enzym-subtrate mixture (JNK-3/GST-ATF2) and 10 μl ATP solution. After 20 min incubation at 37° C. 50 μl HTRF abtibody mixture (XL665-anti-GST/(Eu)cryptat anti-P-ATF2) were added. The emission intensity of the energy transfer and of Eu at 665 and 615 nm, resp., were measured after 120 min at room temperature and stimulation of the probes at 340 nm in a Victor2® (Wallac).
Buffer I for diluting JNK3, GST-ATF2, ATP:
Buffer II for diluting HTRF reagents:
Each plate included 16 positiv controls (maximum energy transfer, buffer I instead of probe), 8 blank controls (minimal energy transfer, buffer 11 instead of ATP) and 8 wells containing a 200 μM EDTA solution.
The results were calculated as follows:
Signal Ration: SR=(intensity(665 nm)/intensity(615 nm)) Blank Correction: Delta F(%)=[…] Inhibition: Inhibition (%)=100×[1−(Delta F(Probe)/Delta F(max))

[1] = Physico chemical properties: solubility; type: physicochemical; settings: solvents in which the compound is soluble

T1 sequence (P53779 whole entry): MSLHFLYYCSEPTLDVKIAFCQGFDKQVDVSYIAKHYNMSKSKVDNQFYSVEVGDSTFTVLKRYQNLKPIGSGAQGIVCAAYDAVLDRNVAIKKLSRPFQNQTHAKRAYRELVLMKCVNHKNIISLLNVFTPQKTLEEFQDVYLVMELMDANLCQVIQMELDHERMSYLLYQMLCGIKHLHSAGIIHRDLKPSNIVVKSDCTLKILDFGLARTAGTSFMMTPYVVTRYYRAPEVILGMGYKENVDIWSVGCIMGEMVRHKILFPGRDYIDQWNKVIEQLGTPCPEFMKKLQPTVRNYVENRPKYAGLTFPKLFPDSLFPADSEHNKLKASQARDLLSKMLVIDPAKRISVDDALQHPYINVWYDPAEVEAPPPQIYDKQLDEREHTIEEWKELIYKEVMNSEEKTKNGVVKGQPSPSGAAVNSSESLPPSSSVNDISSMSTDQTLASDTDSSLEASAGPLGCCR

Row | IC50 (JNK3) [µM] | Solubility [1] | SMILES
1 | 10 | – | CCCCCCCCCCCc1cc(O)cc(O)c1C(=O)OC(CCC)CCCCCCCc1cc(O)cc(O)c1 (stereo not drawn) [Spinosulfate B]
2 | 0.5 | Methanol, DMSO | CCCCCCCCCCCc1cc(O)cc(O)c1C(=O)OC(CCC)CCCCCCCc1cc(OS(=O)(=O)O)cc(OS(=O)(=O)O)c1 (stereo not drawn) [Spinosulfate A]
